From patent US12516286B2, “Method for producing dopaminergic neuron progenitor cell” (KYOTO UNIVERSITY, priority 2016, dated 2026)

Columns and labels:
QHJ-I01 human iPS cell = assay: Corin-positive ratio by flow cytometry with anti-Corin antibody on Day 12 after preconditioning of iPS cells in medium for maintaining undifferentiated state; type: cell-based; conditions: for Corin-positive ratio as compared with the control: summary of Table 1
Method: QHJ-I01, which is a human iPS cell, has been produced by introducing of Oct3/4, Sox2, KIf4, L-MYC, LIN28, and a dominant-negative form of p53 (Okita, K., et al., Stem Cells, 31, 458-66 (2013); WO2013/176233) into human PBMC by an episomal vector. The cells were received from Professor Yamanaka of Kyoto University, et al.
The iPS cells were cultured according to the method described by Miyazaki T, et al., Nat Commun. 3: 1236, 2012. Specifically, maintenance culture was performed in a medium for maintaining undifferentiated state containing FGF2 (bFGF) on a 6-well plate coated with Laminin-511 E8.
24 hours before the start of differentiation induction by exchange with a differentiation medium, the medium was exchanged with StemFit AK03N (Ajinomoto Healthy Supply Co., Inc.), which was a medium for maintaining undifferentiated state containing SAG (Enzo Life Sciences, Inc., 300 nM), an SHH signal stimulant, to obtain a cell population comprising iPS cells.
The cell population comprising iPS cells after culturing for 24 hours in the presence of SAG as described above was dissociated using TrypLE CTS (Life Technologies), and the cells were inoculated on a 6-well plate coated with Laminin-511 E8 (iMatrix-511, Nippi, Inc.) prepared separately, in an amount of 5×10^6 cells per well. The medium was replaced with a differentiation medium [a basal medium A [GMEM (Invitrogen) supplemented with 8% KSR (Invitrogen), 1 mM Sodium pyruvate (Invitrogen), 0.1 mM MEM nonessential amino acid (Invitrogen), and 0.1 mM 2-Mercaptoethanol (WAKO)] containing 10 μM Y-27632 (WAKO), 0.1 μM LDN 193189 (Stemgent, Inc.), and 0.5 μM A83-01 (WAKO)]. On the next day (Day 1), the medium was replaced with Basal Medium A supplemented with 0.1 μM LDN193189, 0.5 μM A83-01, 2 μM Purmorphamine (WAKO), and 100 ng/mL FGF8 (WAKO). Two days later (Day 3), the medium was replaced with Basal Medium A supplemented with 0.1 μM LDN193189, 0.5 μM A83-01, 2 μM Purmorphamine, 100 ng/mL FGF8, and 3 μM CHIR99021 (WAKO). Four days later (Day 7), the medium was replaced with Basal Medium A supplemented with 0.1 μM LDN193189 and 3 μM CHIR99021. During the above period, the medium was replaced once a day. A flow cytometry analysis using an anti-Corin antibody was performed on the 12th day of the start of differentiation induction (Day 12) (FIG. 1).
An anti-Corin antibody was prepared by the following method. First, from the Corin gene of Macaca fascicularis, a gene sequence encoding a part of the extracellular domain (79th-453rd amino acids) was introduced into 293E cells, and the cells were then allowed to express the extracellular-domain fragment of Corin protein, followed by collecting the protein. Mice were immunized with the recovered protein, and lymphocytes were then extracted and fused with myeloma cells. From the cell population after the fusion, a clone having reactivity with Corin was selected. The culture supernatant of the clone was used after attaching a fluorescent label as the anti-Corin monoclonal antibody.
Five days after the culture in Basal Medium A supplemented with 0.1 μM of LDN193189 and 3 μM CHIR99021, namely on the 12th day of the start of differentiation induction (Day 12), the cells were dissociated using TrypLE CTS, and suspended in Ca^2+Mg^2+-free HBSS (Invitrogen) supplemented with 2% FBS, 10 μM Y-27632 (WAKO), 20 mM D-glucose, and 50 μg/mL penicillin/streptomycin. The anti-Corin antibody was added to the suspension, and the resulting mixture was incubated at 4° C. for 20 minutes, the cells were sorted using FACS (BD) to collect Corin-positive cells, and the cell number was counted.
Similar to Example 1, experiments in which the concentration of SAG added was changed, and experiments in which A83-01 or LDN 193189 was added at the same time with SAG, were conducted, and the Corin-positive ratio were measured.

LPF 11 human iPS cell = assay: Corin-positive ratio on Day 12, iPS cells generated by another method; type: cell-based; conditions: SAG 300 nM preconditioning vs absence of SAG, FIG. 4
Description: LPF 11, a human iPS cell, has been established by introducing Oct3/4, Sox2, KIf4, and L-MYC into human PBMC by a Sendai virus vector (Cytotune 2.0 L, produced by ID Pharma Co., Ltd.), and culturing the same by the method according to the protocol published by Kyoto University (Establishment, maintenance culture of human iPS cells; CiRA Ff-iPSC_protocol_JP_v140310, //www.cira.kyoto-u.ac.jp/j/research/protocol.html) using StemFit medium (produced by Ajinomoto Healthy Supply Co., Inc. Inc.), and Laminin-511 E8 (produced by Nippi, Inc.).
Using this iPS cell, culturing and differentiation induction were carried out in the same manner as in Example 1 and the percentage of the number of Corin-positive cells with respect to the total cell number was measured on the 12th day (Day 12) using an anti-Corin antibody.

[1] = tested on: model rat of Parkinson's disease (6-OHDA uni-laterally administered rat); assay: Cell transplantation into striatum of Parkinson's disease model rat, graft staining with TH and HuNu after 4 weeks; type: in vivo; conditions: for TH-ratio with respect to HuNu-positive cells as 100%: graft of cells cultured in the presence of SAG (300 nM)
Method: In this case, the medium was replaced in half every 3 days.
A plurality of cell aggregates containing 4×10^5 cells obtained as described above were suspended in 2 μL of physiological saline, and injected into the striatum of a model rat of Parkinson's disease (6-OHDA uni-laterally administered rat) using a 22 gauge injection needle, and the appearance of the graft after 4 weeks was observed (FIG. 5).

Compound	Corin-Positive Rate (%) (QHJ-I01 human iPS cell; A83-01 (500 nM) alone)	Corin-positive ratio as compared with the control (QHJ-I01 human iPS cell)	Corin-Positive Rate (%) (QHJ-I01 human iPS cell; LDN193189 (100 nM) alone)	percentage of Corin-positive cells (QHJ-I01 human iPS cell; SAG 300 nM for 24 hours before differentiation induction vs absence of SAG, FIG. 2)	Corin-Positive Rate (%) (QHJ-I01 human iPS cell; SAG (10 nM) added to medium for maintaining undifferentiated state before differentiation induction)	Corin-Positive Rate (%) (QHJ-I01 human iPS cell; SAG (300 nM))	percentage of Corin-positive cells (LPF 11 human iPS cell)	ratio of the number of TH-positive cells to the number of HuNu-positive cells, SAG-treated cell graft vs non-treated cell graft ([1]; 4 weeks after grafting)	TH-ratio with respect to HuNu-positive cells as 100% ([1]; 4 weeks) [%]	TH-ratio with respect to HuNu-positive cells as 100% ([1]; 4 weeks after grafting, average) [%]	TH-ratio with respect to HuNu-positive cells as 100% ([1]; 4 weeks, individual (2)) [%]
Cc1cccc(-c2nn(C(=S)Nc3ccccc3)cc2-c2ccnc3ccccc23)n1 [A83-01, 3-(6-methyl-2-pyridinyl)-N-phenyl-4-(4-quinolinyl)-1H-pyrazole-1-carbothioamide]	12.4	no effect	–	–	–	–	–	–	–	–	–
c1ccc2c(-c3cnn4cc(-c5ccc(N6CCNCC6)cc5)cnc34)ccnc2c1 [LDN193189]	–	no effect	12.6	–	–	–	–	–	–	–	–
CNC1CCC(N(Cc2cccc(-c3ccncc3)c2)C(=O)c2sc3ccccc3c2Cl)CC1 (stereo not shown) [SAG]	–	improves depending on the concentration of SAG added	–	increased	22.7	32.1	increased	no difference	6.1	9.24	12.37
